Laboratory results published in US20210007351A1 (priority 2018, published 2021).

Test system: Phytophthora infestans Genotype 13_A2
Type: cell-based
Details: 0.5%, 1% and 2% (all concentrations) in CMA with 0.5% DMSO; 7 days and 14 days post inoculation; 23 °C

Structure (SMILES)	average mycelial extension into amended CMA agar (growth)
CC1(C)C2CCC1(C)C(O)C2O (racemic) [(+/−)-exo,exo-2,3-Camphanediol]	heavily reduced or absent altogether
C=CCc1ccc(O)c(OC)c1 [Eugenol, eugenol]	heavily reduced or absent altogether
